Source: US9616051B2, “Drug targets to overcome de novo drug-resistance in multiple myeloma” (H. Lee Moffitt Cancer Center and Research Institute, Inc., priority 2008, dated 2017)
“Also recorded” adds a separate entry of the source. Read-outs that look alike come from different tables or passages of the source.

Experiments:
[1] = for 1 hour; cited from earlier work
[2] = in vivo; cited from earlier work
topo IIα [3] = settings: cited from earlier work
WI-38 = experiment: CT-Glo cytotoxicity assay, WI-38 cells; format: cell-based; settings: 72-h CT-Glo
Description: (§1) The molecules with the highest docking scores were assayed for IC50 values. Cultures were tested for cytotoxicity using the CellTiter-Glo assay (CT-Glo cytotoxicity assay; Promega, Madison, Wis.), a luminescence-based homogeneous method for determining the number of viable cells in culture based on quantitation of the ATP present, which signals the presence of metabolically active cells (Corsino, et al., A novel class of cyclin-dependent kinase inhibitors identified by molecular docking act through a unique mechanism. J Biol Chem 2009; 284: 29945-55; Homsi, et al., Src activation in melanoma and Src inhibitors as therapeutic agents in melanoma. Melanoma Res 2009; 19: 167-75). All cells were assayed at log-phase growth conditions. Luminescence was measured with a Synergy 4 microplate reader (Bio-Tek Instruments, Inc., Winooski, Vt.). IC50 values were determined using a sigmoidal equilibrium model regression using XLfit version 5.2 (ID Business Solutions Ltd., Surrey, UK) (Corsino, et al., A novel class of cyclin-dependent kinase inhibitors identified by molecular docking act through a unique mechanism. J Biol Chem 2009; 284: 29945-55).

MCF-7 = experiment: CT-Glo cytotoxicity assay, MCF-7 cells; format: cell-based; settings: average ± SD
Description: as §1

topo IIα [4] = molecular target: T1, topo IIα (Homo sapiens, UniProt P11388); experiment: Nuclear-cytoplasmic fractionation and Western blot for topo IIα; format: cell-based; settings: high-density RPMI-H929 cells, 25 μM, FIG. 13 legend
T1 construct: effect on the intracellular location of topo IIα in treated MM cells; endogenous in cells; host or cells: human multiple myeloma cells NCI-H929
Description: FIGS. 13(A) and (B) are blots from nuclear (nuc)-cytoplasmic (cyto) fractionation of high-density MM cells (n=2). […] Human myeloma RPMI-H929 cells were treated for 24 hours. Cells were then chemically separated into nuclear and cytoplasmic fractions.
Human myeloma cells were placed at plateau concentrations (4×10^6 cells/ml), and NES inhibitors were added at 25 μM for 20 hours. Cells were collected, washed in PBS, and fractionated by a method adapted from Li et al. (Li Y, Bor Y C, Misawa Y, Xue Y, Rekosh D, Hammarskjold M L. An intron with a constitutive transport element is retained in a Tap messenger RNA. Nature 2006; 443: 234-7). Separated fractions containing nuclei or precipitated cytosol were dissolved in 2% SDS buffer and assayed by SDS-PAGE Western blot analysis. Blots were probed with an anti-topo IIα Kis1 antibody (Millipore Corp.). […] Cells grown at log-phase concentrations were also fractionated. After MM cells were treated with NCI-9138 at 25 μM for 20 hours, CRM1-topo IIα complexes were isolated from cells by immunoprecipitation using a combination of both protein A and protein G magnetic beads according to the manufacturer's protocol (Miltenyi Biotec, Cologne, Germany). Co-immunoprecipitation was performed with 2 μg of anti-CRM1 antibody (Santa Cruz Biotechnology, Inc., Santa Cruz, Calif.). Immunoprecipitation samples were separated by SDS-PAGE, transferred to nitrocellulose membranes, and probed with anti-topo IIα Kis1 antibody (Millipore, Corp., Billerica, Mass.) and anti-mouse horseradish peroxidase secondary antibody.

Kg-1a = experiment: CT-Glo cytotoxicity assay, Kg-1a cells; format: cell-based; settings: 72-h CT-Glo
Description: as §1

RPMI-8226 (8226) = experiment: CT-Glo cytotoxicity assay, 8226 cells; format: cell-based, human; settings: 8226 cells, 72-h CT-Glo, log-phase (low-density), average ± SD, read-out: IC50
Excerpt: (§2) Compounds identified in Example 1 as the top scoring potential inhibitors for each of the two NES (20 each) were obtained from NCI and structures of these molecules confirmed using NMR and mass spectroscopy analysis, seen in FIGS. 4(A)-(C) and 5(A)-(D). The potential inhibitors were followed up using in vitro model cell cultures. MM cell lines NCI-H929 (H929) and RPMI-8226 (8226) were obtained from and tested for authenticity by the American Type Culture Collection (Manassas, Va.). All cell lines were grown as described previously (Turner, et al., Human topoisomerase IIalpha nuclear export is mediated by two CRM-1-dependent nuclear export signals. J Cell Sci 2004; 117: 3061-71).
as §1

topo IIα [5] = molecular target: T1, topo IIα; experiment: Immunofluorescence microscopy of intracellular location of topo IIα; format: cell-based; settings: 25 μM NES inhibitor; for Nuclear export of topo IIα by immunofluorescence: 20 hours, high-density (plateau) MM cells; for Fold-increase nuclear topo IIα: H929 cells, nucleus v cytoplasm fluorescence vs untreated high-density controls
Description: Slides were viewed with a fully automated, upright Zeiss Axio-ImagerZ.1 microscope (Carl Zeiss A G, Oberkochen, Germany). Briefly, the DAPI image was used as a mask to segment the nuclear region from the Alexa 594 image. The remaining portion of the Alexa 594 image represents the cytosol, and individual nucleus and cytosol images were analyzed.
H929 cells were mock treated with 0.1% DMSO in media or with 25 μM of NES inhibitor. The high density control cells, seen in FIG. 9(A) show high levels of topo II staining outside the nucleus, evidencing export of topo II from the nucleus.

HL-60 = experiment: CT-Glo cytotoxicity assay, HL-60 cells; format: cell-based; settings: 72-h CT-Glo
Description: as §1

PBMC = experiment: CT-Glo cytotoxicity assay, PBMC; format: cell-based; settings: 72-h CT-Glo, average ± SD
Description: as §1

NCI-H929 (H929) = experiment: CT-Glo cytotoxicity assay, H929 cells; format: cell-based, human; settings: average ± SD
Excerpt: as §2, §1

p53 = p53 nuclear export in low-density myeloma cells (nuclear fraction Western blot); format: cell-based, human; settings: H929 at low density (log growth), 25 μM, 20 hours
Description: FIG. 14 is a blot of lead compounds tested to determine if nuclear export inhibition was specific to topo IIα protein. p53 was cycled from the nucleus into the cytoplasm in MM cells cultured at log growth conditions. Cells grown at log-phase concentrations were treated with the lead NES inhibitors (25 μM) or a leptomycin control for 20 hours and chemically fractionated. Nuclei were assayed by SDS-PAGE Western blot analysis for p53 protein (anti-p53 (DO-1), Santa Cruz Biotech, Inc). […] Lamin A/C (anti-lamin A/C, BD Pharmingen) is shown as a loading control.
Cells grown at low concentrations were treated with the lead NES inhibitors (25 μM) or a leptomycin B (5 nM) control for 20 hours and chemically fractionated. Nuclei were assayed by SDS-PAGE Western blot analysis for p53 protein.

topo IIα [6] = molecular target: T1, topo IIα; experiment: Nuclear-cytoplasmic fractionation and Western blot for topo IIα; format: cell-based; settings: RPMI-H929 cells, 100 μM, 24 hours, relative to untreated controls
[7] = tested on: high-density MM cells (H929); experiment: Cleaved caspase 3 apoptosis assay, sensitization to doxorubicin; settings: for Sensitization of high-density MM cells to doxorubicin / synergism: 25 μM NES inhibitor, doxorubicin 2 μM; for Fold-Increased sensitization to dox: dox/drug (dox 2 μM) divided by dox alone
FLOW = experiment: CT-Glo cytotoxicity assay, FLOW cells; format: cell-based; settings: 72-h CT-Glo, average ± SD
Description: as §1

SK-UT = experiment: CT-Glo cytotoxicity assay, SK-UT cells; format: cell-based; settings: 72-h CT-Glo, average ± SD
Description: as §1

[8] = Homo sapiens, MCF7, 72-h CT-Glo
[9] = Homo sapiens, NCI-H929, 72-h CT-Glo

T1 sequence (P11388 whole entry): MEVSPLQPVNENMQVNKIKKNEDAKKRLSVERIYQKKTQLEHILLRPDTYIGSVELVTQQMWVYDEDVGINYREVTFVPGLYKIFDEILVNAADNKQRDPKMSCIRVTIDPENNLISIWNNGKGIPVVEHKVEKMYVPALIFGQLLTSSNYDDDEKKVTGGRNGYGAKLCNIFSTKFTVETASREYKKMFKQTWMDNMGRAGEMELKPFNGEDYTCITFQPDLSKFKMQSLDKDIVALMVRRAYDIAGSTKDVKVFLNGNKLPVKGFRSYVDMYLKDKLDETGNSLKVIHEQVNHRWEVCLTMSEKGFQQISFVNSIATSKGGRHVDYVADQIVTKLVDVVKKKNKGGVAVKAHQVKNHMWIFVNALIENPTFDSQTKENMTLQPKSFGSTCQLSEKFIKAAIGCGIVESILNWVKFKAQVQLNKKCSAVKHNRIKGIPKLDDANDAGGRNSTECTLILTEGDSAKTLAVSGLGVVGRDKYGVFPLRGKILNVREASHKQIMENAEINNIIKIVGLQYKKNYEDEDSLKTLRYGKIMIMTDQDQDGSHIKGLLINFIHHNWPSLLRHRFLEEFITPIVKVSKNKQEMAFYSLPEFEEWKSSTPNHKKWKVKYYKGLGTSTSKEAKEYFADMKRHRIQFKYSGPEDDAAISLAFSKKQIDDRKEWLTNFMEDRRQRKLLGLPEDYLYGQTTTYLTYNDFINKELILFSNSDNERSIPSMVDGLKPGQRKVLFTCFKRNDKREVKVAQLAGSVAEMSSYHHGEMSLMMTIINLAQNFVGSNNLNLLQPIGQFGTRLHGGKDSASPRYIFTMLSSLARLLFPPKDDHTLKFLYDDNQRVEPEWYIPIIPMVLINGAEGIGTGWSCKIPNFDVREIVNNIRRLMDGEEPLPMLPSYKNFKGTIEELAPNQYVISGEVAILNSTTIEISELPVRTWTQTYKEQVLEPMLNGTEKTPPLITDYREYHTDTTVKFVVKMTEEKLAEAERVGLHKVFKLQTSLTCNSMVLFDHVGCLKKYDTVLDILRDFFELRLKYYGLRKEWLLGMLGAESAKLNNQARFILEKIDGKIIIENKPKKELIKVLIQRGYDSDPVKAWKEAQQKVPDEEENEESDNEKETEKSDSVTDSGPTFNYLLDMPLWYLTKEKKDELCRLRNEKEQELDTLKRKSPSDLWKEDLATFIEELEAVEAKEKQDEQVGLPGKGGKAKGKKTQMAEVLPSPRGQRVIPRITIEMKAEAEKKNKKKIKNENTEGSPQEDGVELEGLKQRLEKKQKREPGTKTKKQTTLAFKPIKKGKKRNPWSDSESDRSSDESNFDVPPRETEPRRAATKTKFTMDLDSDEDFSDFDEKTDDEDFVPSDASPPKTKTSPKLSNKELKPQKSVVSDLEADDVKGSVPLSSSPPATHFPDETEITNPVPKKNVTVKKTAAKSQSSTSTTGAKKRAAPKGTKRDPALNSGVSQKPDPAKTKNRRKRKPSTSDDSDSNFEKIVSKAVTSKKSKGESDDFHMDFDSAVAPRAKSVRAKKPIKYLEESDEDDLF

Row | Compound | Export of topo IIα, nuclear-cytoplasmic fractionation (topo IIα [4]) | Nuclear export of topo IIα by immunofluorescence (topo IIα [5]) | Nuclear export of p53 (p53) | Cytoplasmic level / nuclear localization of topo IIα, fractionation Western blot (topo IIα [6]) | Sensitization of high-density MM cells to doxorubicin / synergism [7] | Fold-Increased sensitization to dox [7] [fold] | IC50 (FLOW) [µM] | IC50 (SK-UT) [µM] | also measured
1 | CCC(=C/[C@H](C)C/C=C/C(C)=C/[C@@H](C)C(=O)[C@@H](C)[C@H](O)[C@@H](C)C/C(C)=C/C(=O)O)/C=C/[C@@H]1OC(=O)C=C[C@@H]1C [leptomycin B] |  |  |  |  |  |  |  |  | Concentration with acute toxicity in vitro [1]: < 5 nM; Toxicity in human phase I trial [2]: acute relative toxicities; Export mediated by topo IIα NES site A and site B (topo IIα [3]): blocked
2 | Brc1ccc(C[N+]23CN4CN(CN(C4)C2)C3)cc1 [NCI-80640, 1-(4-bromobenzyl)-15,3,5,7-tetraazatricyclo[3.3.1.1~3,7~]decane] | smaller or little effect on topo II nucleus export inhibition | overlapping staining of topo II with DAPI | significantly inhibit nuclear export of p53 | reduced cytoplasmic levels of topo IIα equivalent to that produced by the CRM-1 inhibitor ratjadone C | synergized with the topo II inhibitor doxorubicin | 2.42 ± 1.09 | 35.6 | 25.5 | IC50 (WI-38; Homo sapiens): 56.3 µM; IC50 (MCF-7; [8]): 25.9 µM; IC50 (Kg-1a; Homo sapiens): 15.2 µM; IC50 (RPMI-8226 (8226); Homo sapiens, RPMI-8226): 12 ± 4.2 µM; IC50 (HL-60; Homo sapiens): 11.9 µM; IC50 (PBMC): 16.4 µM; IC50 (NCI-H929 (H929); [9]): 16.2 µM
3 | Clc1cc(Cl)c(C[N+]23CN4CN(CN(C4)C2)C3)cc1Cl [NCI-155877, 1-(2,4,5-trichlorobenzyl)-15,3,5,7-tetraazatricyclo[3.3.1.1~3,7~]decane] | smaller or little effect on topo II nucleus export inhibition | overlapping staining of topo II with DAPI | did not prevent export of p53 | did not significantly reduce the level of cytoplasmic topo IIα | synergized with the topo II inhibitor doxorubicin | 2.82 ± 1.18 | 56.8 | 50.4 | IC50 (WI-38; Homo sapiens): 136 µM; IC50 (MCF-7; [8]): 37.1 µM; IC50 (Kg-1a; Homo sapiens): 31.4 µM; IC50 (RPMI-8226 (8226); Homo sapiens, RPMI-8226): 19.5 ± 5.4 µM; Fold-increase nuclear topo IIα (topo IIα [5]): 3.92 fold; IC50 (HL-60; Homo sapiens): 20.4 µM; IC50 (PBMC): 37.2 µM; IC50 (NCI-H929 (H929); [9]): 33.6 µM
4 | O=C(Nc1ccc(C2=NCCN2)cc1)c1ccc(C(=O)Nc2ccc(C3=NCCN3)cc2)c([N+](=O)[O-])c1 [NCI-35847, N1,N4-bis(4-(4,5-dihydro-1H-imidazol-2-yl)phenyl)-2-(hydroxy(oxido)amino)terephthalamide] | strongly blocked export of topo IIα | prevent nuclear export of Topo IIα; also recorded: overlapping staining of topo II with DAPI | did not prevent export of p53 | reduced cytoplasmic levels of topo IIα equivalent to that produced by the CRM-1 inhibitor ratjadone C | synergized with the topo II inhibitor doxorubicin; also recorded: significantly (p<0.05) sensitize high density MM cells to doxorubicin | 2.65 ± 0.90 | 62.8 | 55.3 | IC50 (WI-38): 199 µM; IC50 (MCF-7; 72-h CT-Glo): 68.5 µM; IC50 (Kg-1a): 73.8 µM; IC50 (RPMI-8226 (8226)): 7.2 ± 1.4 µM; Fold-increase nuclear topo IIα (topo IIα [5]): 2.81 fold; IC50 (HL-60): 36.5 µM; IC50 (NCI-H929 (H929); 72-h CT-Glo): 13.9 µM
5 | O=C(C[N+]12CN3CN(CN(C3)C1)C2)c1ccc(Br)cc1 [NCI-32237, 1-(4-bromophenyl)-2-(15,3,5,7-tetraazatricyclo[3.3.1.1~3,7~]dec-1-yl)ethanone] | did not affect nuclear export of topo II |  |  | did not affect nuclear export of topo II |  |  |  |  | 
6 | Ratjadone C [reference compound] | prevented nuclear export |  |  |  |  |  |  |  | 
7 | O/N=C(/C[N+]12CN3CN(CN(C3)C1)C2)c1ccc(I)cc1 [NCI-35024, 1-(4-iodophenyl)-2-(15,3,5,7-tetraazatricyclo[3.3.1.1~3,7~]dec-1-yl)ethanone oxime] |  | prevent nuclear export of Topo IIα |  |  | significantly (p<0.05) sensitize high density MM cells to doxorubicin |  |  |  | 
8 | O=C(C[N+]12CN3CN(CN(C3)C1)C2)c1ccc2ccccc2c1 [NCI-36400, 1-(2-naphthyl)-2-(15,3,5,7-tetraazatricyclo[3.3.1.1~3,7~]dec-1-yl)ethanone] |  | prevent nuclear export of Topo IIα |  |  | significantly (p<0.05) sensitize high density MM cells to doxorubicin |  |  |  | 
